Results as given in patent US20160002248A1, “GLS1 INHIBITORS FOR TREATING DISEASE” (Board of Regents, The University of Texas System, priority 2014, published 2016).
pEC50, pIC50: −log10 of the molar value.

Legend:
[1] = molecular target: T1, purified recombinant human GAC (GLS1) (Homo sapiens, UniProt O94925); test: GLS1 Enzymatic Activity Assay (dual-coupled enzymatic assay); assay type: biochemical
T1 sequence (O94925 55-598 isoform O94925-3 limits assumed): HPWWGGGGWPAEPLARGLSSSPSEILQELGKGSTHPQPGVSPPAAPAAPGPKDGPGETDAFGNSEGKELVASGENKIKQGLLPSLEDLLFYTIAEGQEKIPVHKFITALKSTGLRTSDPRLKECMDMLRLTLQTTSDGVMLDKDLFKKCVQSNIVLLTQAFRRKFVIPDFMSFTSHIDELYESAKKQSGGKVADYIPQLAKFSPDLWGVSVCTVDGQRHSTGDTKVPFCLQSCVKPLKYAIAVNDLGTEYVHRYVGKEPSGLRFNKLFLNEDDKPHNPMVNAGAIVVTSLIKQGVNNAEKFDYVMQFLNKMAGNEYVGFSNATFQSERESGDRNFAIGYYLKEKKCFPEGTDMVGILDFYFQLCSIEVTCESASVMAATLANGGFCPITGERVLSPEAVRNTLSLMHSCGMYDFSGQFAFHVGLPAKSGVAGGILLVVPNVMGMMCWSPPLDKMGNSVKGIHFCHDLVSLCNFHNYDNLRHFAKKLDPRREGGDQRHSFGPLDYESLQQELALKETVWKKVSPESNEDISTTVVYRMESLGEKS
How it was run: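 Recombinant human GAC (2 nM) preincubated with 50 mM potassium phosphate, then inhibitor (10 min each, RT); 1 mM glutamine, pH 7.4 Hepes buffer, 1% DMSO. Glutamate coupled via glutamate oxidase/HRP to resorufin (Ex 530/Em 590), kinetic or 20-min endpoint; IC50 by four-parameter logistic fit.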

A549 cells = test: Proliferation Assay (A549 cell viability, Cell Titer Fluor); assay type: cell-based; details: Homo sapiens, 72 hours
How it was run: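 Seed A549 at 1000 cells/well and culture 24 h. Add compound (final DMSO 0.5%) and incubate 72 h at 37 °C. Add Cell Titer Fluor, mix 15 min, incubate 30 min, read fluorescence and fit EC50 by four-parameter logistic.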

For `CC(=O)N1CC(c2cc3cc(CCCCn4cc(C(=O)NCc5cc(OC(F)(F)F)ccc5F)nn4)nnc3[nH]2)C1` [Example 119, 1-{4-[6-(1-acetylazetidin-3-yl)-7H-pyrrolo[2,3-c]pyridazin-3-yl]butyl}-N-{[2-fluoro-5-(trifluoromethoxy)phenyl]methyl}-1H-1,2,3-triazole-4-carboxamide], the pIC50 [1] was over 7.00 and the pEC50 (A549 cells) was 5.30 to 6.30.

`O=C(NCc1ccccn1)c1cn(CCCCc2cc3c(-c4ccccc4F)c(C4CC4)[nH]c3nn2)nn1` [Example 120, 1-{4-[6-cyclopropyl-5-(2-fluorophenyl)-7H-pyrrolo[2,3-c]pyridazin-3-yl]butyl}-N-(pyridin-2-ylmethyl)-1H-1,2,3-triazole-4-carboxamide] gave a pIC50 [1] of over 7.00 and a pEC50 (A549 cells) of 6.30 to 7.00.

Compound `COc1cccc(-c2c(C3CC3)[nH]c3nnc(CCCCn4cc(C(=O)NCc5ccccn5)nn4)cc23)c1` [Example 121, 1-{4-[6-cyclopropyl-5-(3-methoxyphenyl)-7H-pyrrolo[2,3-c]pyridazin-3-yl]butyl)-N-(pyridin-2-ylmethyl)-1H-1,2,3-triazole-4-carboxamide] has a pIC50 [1] of over 7.00 and a pEC50 (A549 cells) of 6.30 to 7.00.

Compound `Cc1ccc(CNC(=O)c2cn(CCCCc3cc4c(-c5ccccc5F)c(C5CC5)[nH]c4nn3)nn2)cn1` [Example 122, 1-{4-[6-cyclopropyl-5-(2-fluorophenyl)-7H-pyrrolo[2,3-c]pyridazin-3-yl]butyl}-N-[(6-methylpyridin-3-yl)methyl]-1H-1,2,3-triazole-4-carboxamide] has a pIC50 [1] of over 7.00 and a pEC50 (A549 cells) of over 7.00.

For `O=C(NCc1ccccn1)c1cn(CCCCc2cc3c(-c4ccc(C(F)(F)F)cc4)c(C4CC4)[nH]c3nn2)nn1` [Example 123, 1-(4-{6-cyclopropyl-5-[4-(trifluoromethyl)phenyl]-7H-pyrrolo[2,3-c]pyridazin-3-yl}butyl)-N-(pyridin-2-ylmethyl)-1H-1,2,3-triazole-4-carboxamide], the pIC50 [1] was over 7.00 and the pEC50 (A549 cells) was 6.30 to 7.00.

`N#Cc1ccc(-c2c(C3CC3)[nH]c3nnc(CCCCn4cc(C(=O)NCc5ccccn5)nn4)cc23)cc1` [Example 124, 1-{4-[5-(4-cyanophenyl)-6-cyclopropyl-7H-pyrrolo[2,3-c]pyridazin-3-yl]butyl}-N-(pyridin-2-ylmethyl)-1H-1,2,3-triazole-4-carboxamide] gave a pIC50 [1] of over 7.00 and a pEC50 (A549 cells) of 5.30 to 6.30.

`O=C(NCc1ccccn1)c1cn(CCCCc2cc3c(-c4ccc(F)cc4)c(C4CC4)[nH]c3nn2)nn1` [Example 125, 1-{4-[6-cyclopropyl-5-(4-fluorophenyl)-7H-pyrrolo[2,3-c]pyridazin-3-yl]butyl}-N-(pyridin-2-ylmethyl)-1H-1,2,3-triazole-4-carboxamide] showed a pIC50 [1] of over 7.00 and a pEC50 (A549 cells) of 6.30 to 7.00.

`O=C(NCc1ccccn1)c1cn(CCCCc2cc3c(Cc4ccccn4)c(C4CC4)[nH]c3nn2)nn1` [Example 126, 1-{4-[6-cyclopropyl-5-(pyridin-2-ylmethyl)-7H-pyrrolo[2,3-c]pyridazin-3-yl]butyl}-N-(pyridin-2-ylmethyl)-1H-1,2,3-triazole-4-carboxamide] was tested, and the pIC50 [1] was 6.30 to 7.00 and the pEC50 (A549 cells) was 5.30 to 6.30.

For `O=C(NCc1cc(OC(F)(F)F)ccc1F)c1cn(CCCCc2cc3c(Cc4ccccn4)c(C4CC4)[nH]c3nn2)nn1` [Example 127, 1-{4-[6-cyclopropyl-5-(pyridin-2-ylmethyl)-7H-pyrrolo[2,3-c]pyridazin-3-yl]butyl}-N-{[2-fluoro-5-(trifluoromethoxy)phenyl]methyl}-1H-1,2,3-triazole-4-carboxamide], the pIC50 [1] was over 7.00 and the pEC50 (A549 cells) was 6.30 to 7.00.

Work on `O=C(NCc1cc(OC(F)(F)F)ccc1F)c1cn(CCCCc2cc3c(-c4ccncc4)c(C4CC4)[nH]c3nn2)nn1` [Example 128, 1-{4-[6-cyclopropyl-5-(pyridin-4-yl)-7H-pyrrolo[2,3-c]pyridazin-3-yl]butyl)-N-{[2-fluoro-5-(trifluoromethoxy)phenyl]methyl}-1H-1,2,3-triazole-4-carboxamide] yielded a pIC50 [1] of over 7.00 and a pEC50 (A549 cells) of over 7.00.

`O=C(NCc1ccccn1)c1cn(CCCCc2cc3c(-c4cncnc4)c(C4CC4)[nH]c3nn2)nn1` [Example 129, 1-(4-(6-cyclopropyl-5-(pyrimidin-5-yl)-7H-pyrrolo[2,3-c]pyridazin-3-yl)butyl)-N-(pyridin-2-ylmethyl)-1H-1,2,3-triazole-4-carboxamide] showed a pIC50 [1] of 6.30 to 7.00 and a pEC50 (A549 cells) of 5.30 to 6.30.

With `CS(=O)(=O)N1CC(c2cc3cc(CCCCn4cc(C(=O)NCc5cc(OC(F)(F)F)ccc5F)nn4)nnc3[nH]2)C1` [Example 130, N-{[2-fluoro-5-(trifluoromethoxy)phenyl]methyl}-1-{4-[6-(1-methanesulfonylazetidin-3-yl)-7H-pyrrolo[2,3-c]pyridazin-3-yl]butyl}-1H-1,2,3-triazole-4-carboxamide] the pIC50 [1] was over 7.00 and the pEC50 (A549 cells) was 6.30 to 7.00.

Work on `CC(C)OC(=O)N1CC(c2cc3cc(CCCCn4cc(C(=O)NCc5cc(OC(F)(F)F)ccc5F)nn4)nnc3[nH]2)C1` [Example 131, propan-2-yl 3-(3-{4-[4-({[2-fluoro-5-(trifluoromethoxy)phenyl]methyl}carbamoyl)-1H-1,2,3-triazol-1-yl]butyl}-7H-pyrrolo[2,3-c]pyridazin-6-yl)azetidine-1-carboxylate] yielded a pIC50 [1] of over 7.00 and a pEC50 (A549 cells) of over 7.00.

Work on `CCOC(=O)N1CC(c2cc3cc(CCCCn4cc(C(=O)NCc5cc(OC(F)(F)F)ccc5F)nn4)nnc3[nH]2)C1` [Example 132, ethyl 3-(3-{4-[4-({[2-fluoro-5-(trifluoromethoxy)phenyl]methyl}carbamoyl)-1H-1,2,3-triazol-1-yl]butyl)-7H-pyrrolo[2,3-c]pyridazin-6-yl)azetidine-1-carboxylate] yielded a pIC50 [1] of over 7.00 and a pEC50 (A549 cells) of over 7.00.

For `CC(C)(O)C(=O)N1CC(c2cc3cc(CCCCn4cc(C(=O)NCc5cc(OC(F)(F)F)ccc5F)nn4)nnc3[nH]2)C1` [Example 133, N-{[2-fluoro-5-(trifluoromethoxy)phenyl]methyl}-1-(4-{6-[1-(2-hydroxy-2-methylpropanoyl)azetidin-3-yl]-7H-pyrrolo[2,3-c]pyridazin-3-yl}butyl)-1H-1,2,3-triazole-4-carboxamide], the pIC50 [1] was over 7.00 and the pEC50 (A549 cells) was 6.30 to 7.00.

`O=C(NCc1ccccn1)c1cn(CCCCc2cc3cc(-c4ccccc4F)[nH]c3nn2)nn1` [Example 134, 1-(4-(6-(2-fluorophenyl)-7H-pyrrolo[2,3-c]pyridazin-3-yl)butyl)-N-(pyridin-2-ylmethyl)-1H-1,2,3-triazole-4-carboxamide] was tested, and the pIC50 [1] was over 7.00 and the pEC50 (A549 cells) was over 7.00.

`Cn1nccc1-c1c(C2CC2)[nH]c2nnc(CCCCn3cc(C(=O)NCc4ccccn4)nn3)cc12` [Example 135, 1-{4-[6-cyclopropyl-5-(1-methyl-1H-pyrazol-5-yl)-7H-pyrrolo[2,3-c]pyridazin-3-yl]butyl}-N-(pyridin-2-ylmethyl)-1H-1,2,3-triazole-4-carboxamide] showed a pIC50 [1] of over 7.00 and a pEC50 (A549 cells) of 5.30 to 6.30.

Work on `CS(=O)(=O)c1cccc(-c2c(C3CC3)[nH]c3nnc(CCCCn4cc(C(=O)NCc5ccccn5)nn4)cc23)c1` [Example 136, 1-{4-[6-cyclopropyl-5-(3-methanesulfonylphenyl)-7H-pyrrolo[2,3-c]pyridazin-3-yl]butyl}-N-(pyridin-2-ylmethyl)-1H-1,2,3-triazole-4-carboxamide] yielded a pIC50 [1] of over 7.00 and a pEC50 (A549 cells) of 5.30 to 6.30.

`CS(=O)(=O)Nc1cccc(-c2c(C3CC3)[nH]c3nnc(CCCCn4cc(C(=O)NCc5ccccn5)nn4)cc23)c1` [Example 137, 1-{4-[6-cyclopropyl-5-(3-methanesulfonamidophenyl)-7H-pyrrolo[2,3-c]pyridazin-3-yl]butyl}-N-(pyridin-2-ylmethyl)-1H-1,2,3-triazole-4-carboxamide] gave a pIC50 [1] of over 7.00 and a pEC50 (A549 cells) of 5.30 to 6.30.

Compound `O=C(NCc1ccccn1)c1cn(CCCCc2cc3c(-c4ccc(O)cc4)c(C4CC4)[nH]c3nn2)nn1` [Example 138, 1-{4-[6-cyclopropyl-5-(4-hydroxyphenyl)-7H-pyrrolo[2,3-c]pyridazin-3-yl]butyl}-N-(pyridin-2-ylmethyl)-1H-1,2,3-triazole-4-carboxamide] has a pIC50 [1] of over 7.00 and a pEC50 (A549 cells) of 5.30 to 6.30.

Work on `O=C(NCc1ccccn1)c1cn(CCCCc2cc3c(-c4ccsc4)c(C4CC4)[nH]c3nn2)nn1` [Example 139, 1-{4-[6-cyclopropyl-5-(thiophen-3-yl)-7H-pyrrolo[2,3-c]pyridazin-3-yl]butyl}-N-(pyridin-2-ylmethyl)-1H-1,2,3-triazole-4-carboxamide] yielded a pIC50 [1] of over 7.00 and a pEC50 (A549 cells) of 6.30 to 7.00.

In the case of `N#CCC(=O)N1CC(c2cc3cc(CCCCn4cc(C(=O)NCc5cc(OC(F)(F)F)ccc5F)nn4)nnc3[nH]2)C1` [Example 140, 1-(4-{6-[1-(2-cyanoacetyl)azetidin-3-yl]-7H-pyrrolo[2,3-c]pyridazin-3-yl}butyl)-N-{[2-fluoro-5-(trifluoromethoxy)phenyl]methyl}-1H-1,2,3-triazole-4-carboxamide], the pIC50 [1] was over 7.00 and the pEC50 (A549 cells) was 5.30 to 6.30.
